Data reported in patent publication US8815829B2, “3′-azido purine nucleotide prodrugs for treatment of viral infections” (priority 2008, dated 2014).
Read-outs that look alike come from different tables or passages of the source.

Key:
[1] = biological target: T1, Wild-type (WT) HIV-1 RT (Human immunodeficiency virus type 1 group M subtype B, UniProt P03367); experiment: Inhibition of HIV-1 RT DNA synthesis by 6-modified-AZG analogs; type: biochemical; settings: DNA/DNA template/primer, 200 nM WT RT, 40 min
T1 construct: HIV-1 RT (xxLAI background); inferred from vector p6HRT-PROT and the cited metal chelate purification; made in house; host or cells: bacteria (p6HRT-PROT expression vector)
Protocol: Wild-type (WT) HIV-1 RT was purified as described previously (1, 2). […] The 214 nucleotide (nt) DNA template, corresponding to the HIV-1 PBS region, was prepared as described previously (4). Reactions were initiated by the addition of 200 nM WT RT, incubated for 40 min at 37° C. and then quenched using 20 μL of gel loading buffer (98% deionized formamide containing 1 mg/mL each of bromophenol blue and xylene cyanol). […] Gels were analyzed using phosphorimaging with a GS525 Molecular Imager and Quantity One Software (Biorad Laboratories, Inc., Hercules, Calif.).

[2] = test system: 151M complex RT; experiment: Studies with purified RT: inhibition of 151M complex RT; type: biochemical, HIV-1
[3] = test system: CEM cells; experiment: Cytotoxicity assay in CEM cells; type: cell-based, human; settings: Tables 2-4; read-out: CEM IC50
[4] = test system: WT (LAI) HIV-1; experiment: Single cycle assay in P4/R5 cells, WT HIV-1; type: cell-based
Protocol: (§1) In a 96-well plate, two- or three-fold serial dilutions of an inhibitor were added to P4/R5 cells in triplicate. […] At 48 h post-infection, a cell lysis buffer and luminescent substrate (Gal-Screen; Tropix/Applied Biosystems) was added to each well, and relative light unit values were determined using a luminometer (ThermoLabSystems, Waltham, Mass.).
(§2) Virus stocks were prepared as described above. Drug susceptibility assays were performed using the single- and multiple-replication-cycle assays also described above.

[5] = test system: HIV-1/LAI; experiment: Anti-HIV-1 assay in PBM cells; type: cell-based; settings: Tables 2-4, n = 3 for the MP prodrugs
Protocol: Stock solutions (20-40 mM) of the compounds were prepared in sterile DMSO and then diluted to the desired concentration in growth medium. Cells were infected with the prototype HIV-1LAI at a multiplicity of infection of 0.01. Virus obtained from the cell supernatant was quantified on day 6 after infection by a reverse transcriptase assay using (rA)n·(dT)12-18 as template-primer. […] The antiviral EC50 and EC90 were obtained from the concentration-response curve using the median effective method described previously (see Chou T.-C. & Talalay P. Adv. Enzyme Regul. 1984, 22, 27-55; Belen'kii M. S. & Schinazi R. F. Antiviral Res. 1994, 25, 1-11).

[6] = test system: PBM cells; experiment: Cytotoxicity assay in PBM cells; type: cell-based, human; settings: Tables 2-4; read-out: PBM IC50
[7] = test system: HIV-1 L74V; experiment: microbe, parasite or virus in culture; type: cell-based
Protocol: as §1, §2

[8] = test system: HIV-1 AZT7 (M41L/D67N/K70R/T215F/K219Q); experiment: microbe, parasite or virus in culture; type: cell-based
Protocol: as §1, §2

[9] = test system: HIV-1 AZT3 (M41L/L210W/T215Y); experiment: microbe, parasite or virus in culture; type: cell-based
Protocol: as §1, §2

[10] = test system: HIV-1 Q151Mc (A62V/V75I/F77L/F116Y/Q151M); experiment: microbe, parasite or virus in culture; type: cell-based; settings: mean ± standard deviation
Protocol: as §1, §2

[11] = test system: HIV-1 AZT9 (M41L/D67N/K70R/L210W/T215Y/K219Q); experiment: microbe, parasite or virus in culture; type: cell-based
Protocol: as §1, §2

[12] = test system: HIV-1 K65R; experiment: microbe, parasite or virus in culture; type: cell-based
Protocol: as §1, §2

[13] = test system: HIV-1 T69SSS (M41L/T69SSS/L210W/T215Y); experiment: microbe, parasite or virus in culture; type: cell-based; settings: Human immunodeficiency virus 1, P4/R5, P4/R5 cells, mean ± standard deviation
Protocol: as §1, §2

[14] = test system: HIV-1 M184V; experiment: microbe, parasite or virus in culture; type: cell-based
Protocol: as §1, §2

[15] = test system: HIV-1 AZT2 (D67N/K70R/T215F/K219Q); experiment: microbe, parasite or virus in culture; type: cell-based
Protocol: as §1, §2

[16] = test system: Vero cells; experiment: Cytotoxicity assay in Vero cells; type: cell-based; settings: read-out: Vero IC50; Tables 2-4
[17] = test system: NRTI-resistant HIV-1; experiment: Cross-resistance against a broad panel of NRTI-resistant HIV-1; type: cell-based
[18] = Human immunodeficiency virus 1, P4/R5 cells, mean ± standard deviation

SMILES: [N-]=[N+]=N[C@H]1C[C@H](n2cnc3c(N)nc(N)nc32)O[C@@H]1COP(=O)(O)OP(=O)(O)OP(=O)(O)O [RS-667-TP]
- potency of inhibition of HIV-1 RT DNA synthesis (rank order) [1]: most potent analog
- potency against 151M complex RT [2]: less potent than AZG-TP

SMILES: CCOC(=O)[C@H](C)NP(=O)(OC[C@H]1O[C@@H](n2cnc3c(N)nc(N)nc32)CC1N=[N+]=[N-])Oc1ccccc1 (stereo partly shown) [RS-788]
- IC50 [3]: 30.4 µM
- fold more potent against WT HIV-1 compared to either RS-667 or RFS-457 [4]: ~10 fold
- EC50 ([4]; Human immunodeficiency virus 1, P4/R5, read-out: EC50 WT (LAI), P4/R5 cells, mean ± standard deviation): 120 nM
- EC50 ([4]; read-out: EC50 WT (LAI), P4/R5 cells, mean ± standard deviation): 118 ± 60 nM
- EC50 ([5]; read-out: HIV EC50): 9 nM
- EC90 ([5]; read-out: HIV EC90): 110 nM
- IC50 [6]: 38.3 µM
- Fold-change versus WT, L74V ([7]; EC50 mutant / EC50 WT): (0.6) fold
- EC50 [7, 18]: 73 ± 20 nM
- Fold-change versus WT, AZT7 ([8]; EC50 mutant / EC50 WT): (2.3) fold
- EC50 [8, 18]: 270 ± 50 nM
- Fold-change versus WT, AZT3 ([9]; EC50 mutant / EC50 WT): (1.6) fold
- EC50 [9, 18]: 189 ± 20 nM
- EC50 ([10]; Human immunodeficiency virus 1, P4/R5, P4/R5 cells): 280 nM
- EC50 ([10]; P4/R5 cells): 277 ± 70 nM
- Fold-change versus WT, AZT9 ([11]; EC50 mutant / EC50 WT): (2.1) fold
- EC50 [11, 18]: 253 ± 90 nM
- Fold-change versus WT, K65R ([12]; EC50 mutant / EC50 WT): (0.9) fold
- EC50 [12, 18]: 106 ± 70 nM
- EC50 [13]: 440 nM
- Fold-change versus WT, M184V ([14]; EC50 mutant / EC50 WT): (0.4) fold
- EC50 [14, 18]: 48 ± 30 nM
- Fold-change versus WT, AZT2 ([15]; EC50 mutant / EC50 WT): (2.3) fold
- EC50 [15, 18]: 274 ± 70 nM
- IC50 [16]: > 100 µM
- cross-resistance profile compared to AZD, AZG or AZT [17]: superior cross-resistance profile
